Patent US8226965B2, “Methods of treating fungal, yeast and mold infections” (priority 2008, dated 2012)

What was measured:
[1] = cited from earlier work
[2] = system: T. rubrum mycelia and microconidia; assay: Time-kill experiments; type: cell-based, Trichophyton rubrum; conditions: for reduction in colony counts: 16×MIC, up to 24 hours, hyphae or microconidia in water (nongrowth)
Method: Time-kill experiments. […] Part of the conidial suspension was pelleted and resuspended in RPMI 1640 medium and grown for 16-18 hours overnight at room temperature to allow germination of microconidia. After germination, the hyphae were collected by centrifugation and resuspended in distilled water. […] Colony-forming units were counted after four days of incubation at 35° C.

[3] = system: Trichophyton rubrum, Trichophyton mentagrophytes and Epidermophyton floccosum; assay: Spontaneous resistance development, overall; type: cell-based
Method: Phenotypically resistant isolates were tested for MICs and compared to parental MICs.

Row | Compound | solubility in dichloromethane [1] | solubility in methanol [1] | reduction in colony counts [2] | activity on nongrowing mycelia and conidia ([2]; FIG. 10) | stable resistance of recovered isolates [3]
1 | CN(C/C=C/C#CC(C)(C)C)Cc1cccc2ccccc12.Cl [Terbinafine hydrochloride] | freely soluble | freely soluble |  |  | 
2 | Cc1cc(C2CCCCC2)n(O)c(=O)c1 [Ciclopirox] |  |  | None of the other compounds significantly reduced colony counts | no activity against the conidial form | none of the isolates were stably resistant
3 | CN(C/C=C/C#CC(C)(C)C)Cc1cccc2ccccc12 [Terbinafine] |  |  | None of the other compounds significantly reduced colony counts |  | none of the isolates were stably resistant
